Assay [1] deals with NCI-H1975. Put plainly: Inhibition of cell viability in human NCI-H1975 cells incubated for 48 to 72 hrs by CCK8 assay.
In assay [2] the target is T1, ZYG11B/ZER1/EML4-ALK (Homo sapiens, UniProt Q9UM73+Q9HC35+Q9C0D3+Q7Z7L7). The experiment in a line: PROTAC (AATac) activity at ZYG11B/ZER1/EML4-ALK in human NCI-H3122 cells assessed as protein degradation at 10 uM incubated for […] by immunoblot analysis. It counts as cell-based. (Immunoblotting shows a protein as a band on a membrane.)
The subject of assay [3] is Protein zyg-11 homolog B/Protein zer-1 homolog/Epidermal growth factor receptor (Homo sapiens), P00533+Q9C0D3+Q7Z7L7 [L858R,T790M]. The experiment in a line: PROTAC (AATac) activity at ZYG11B/ZER1/EGFR L858R/T790M mutant in human NCI-H1975 cells assessed as protein degradation at 20 uM incubated for 48 to 72 hrs by immunoblot analysis relative to control. The class given is cell-based. Conditions: time 48-72 hrs.

Assay [4] concerns NCI-H3122. The experiment in a line: Antitumor activity against human NCI-H3122 cells xenografted in nude mouse assessed as reduction in ALK level at 10 mg/kg, ip measured after 24 hrs by immunoblot analysis. The class given is functional, organism-based. (In general: A xenograft is tissue or cells of one species grown in another, often human tumour cells in immunodeficient mice.)

Assay [5] addresses T1, ZYG11B/ZER1/EML4-ALK. Put plainly: PROTAC (AATac) activity at ZYG11B/ZER1/EML4-ALK in human NCI-H3122 cells harboring shZYG11B assessed as protein degradation incubated for 24 hrs by immunoblot analysis. It counts as cell-based.
Assay [6] addresses T1, ZYG11B/ZER1/EML4-ALK. Put plainly: PROTAC (AATac) activity at ZYG11B/ZER1/EML4-ALK in human NCI-H3122 cells assessed as protein degradation at 10 uM incubated for 48 to 72 hrs by immunoblot analysis relative to control. It counts as cell-based. Conditions: time 48-72 hrs.
The subject of assay [7] is Protein zyg-11 homolog B/Protein zer-1 homolog/Epidermal growth factor receptor (Homo sapiens), P00533+Q9C0D3+Q7Z7L7 [L858R,T790M]. Put plainly: PROTAC (AATac) activity at ZYG11B/ZER1/EGFR L858R/T790M mutant in human NCI-H1975 cells assessed as protein degradation at 20 uM incubated for 24 hrs by immunoblot analysis. The class given is cell-based.
The subject of assay [8] is A549. The experiment in a line: Effect on wild-type EGFR expression in human A549 cells upto 20 uM incubated for 72 hrs by immunoblot analysis. The class given is functional, cell-based.
The test system of assay [9] is NCI-H1299. Put plainly: Effect on wild-type EGFR expression in human NCI-H1299 cells upto 20 uM incubated for 72 hrs by immunoblot analysis. It counts as functional, cell-based.
The test system of assay [10] is Protein zyg-11 homolog B/Protein zer-1 homolog/Epidermal growth factor receptor (Homo sapiens), P00533+Q9C0D3+Q7Z7L7 [L858R,T790M]. Put plainly: PROTAC (AATac) activity at ZYG11B/ZER1/EGFR L858R/T790M mutant in human NCI-H1975 cells harboring shZER1 assessed as protein degradation incubated for 72 hrs by immunoblot analysis. The class given is cell-based.
The target of assay [11] is T1, ZYG11B/ZER1/EML4-ALK. The experiment in a line: PROTAC (AATac) activity at ZYG11B/ZER1/EML4-ALK in human NCI-H3122 cells assessed as protein degradation upto 20 uM incubated for 72 hrs by immunoblot analysis. The class given is cell-based.
Assay [12] has as its target T1, ZYG11B/ZER1/EML4-ALK. The experiment in a line: PROTAC (AATac) activity at ZYG11B/ZER1/EML4-ALK in human NCI-H3122 cells assessed as protein degradation incubated for 48 to 72 hrs by immunoblot analysis. It counts as cell-based.
Assay [13] has as its system Protein zyg-11 homolog B/Protein zer-1 homolog/Epidermal growth factor receptor (Homo sapiens), P00533+Q9C0D3+Q7Z7L7 [L858R,T790M]. The experiment in a line: PROTAC (AATac) activity at ZYG11B/ZER1/EGFR L858R/T790M mutant in human NCI-H1975 cells assessed as protein degradation upto 20 uM incubated for 72 hrs by immunoblot analysis. It counts as cell-based.
In assay [14] the test system is PC-9. Put plainly: Effect on EGFR del19 mutant expression in human PC-9 cells upto 20 uM incubated for 72 hrs by immunoblot analysis. The class given is functional, cell-based.
For assay [15], the target named is Protein zyg-11 homolog B/Protein zer-1 homolog/Epidermal growth factor receptor (Homo sapiens, UniProt P00533+Q9C0D3+Q7Z7L7, T790M/L858R). Put plainly: PROTAC (AATac) activity at ZYG11B/ZER1/EGFR L858R/T790M mutant in human NCI-H1975 cells assessed as protein degradation incubated for 48 to 72 hrs by immunoblot analysis. It counts as cell-based.
Assay [16] deals with Protein zyg-11 homolog B/Protein zer-1 homolog/Epidermal growth factor receptor (Homo sapiens), P00533+Q9C0D3+Q7Z7L7 [L858R,T790M]. The experiment in a line: PROTAC (AATac) activity at ZYG11B/ZER1/EGFR L858R/T790M mutant in human NCI-H1975 cells harboring shZYG11B assessed as protein degradation incubated for 72 hrs by immunoblot analysis. It counts as cell-based.
For assay [17], the target named is T1, ZYG11B/ZER1/EML4-ALK. Put plainly: PROTAC (AATac) activity at ZYG11B/ZER1/EML4-ALK in human NCI-H3122 cells harboring shZER1 assessed as protein degradation incubated for 24 hrs by immunoblot analysis. The class given is cell-based.
Assay [18] concerns NCI-H3122. The experiment in a line: Inhibition of cell viability in human NCI-H3122 cells incubated for 48 to 72 hrs by CCK8 assay. (In general: Tetrazolium assays rely on reduction of a dye to a coloured formazan, in cell work by metabolically active cells.)
In assay [19] the target is UBR/ALK tyrosine kinase receptor/Echinoderm microtubule-associated protein-like 4. Put plainly: PROTAC (AATac) activity at UBR1/2/4/EML4-ALK in human NCI-H3122 cells assessed as protein degradation incubated for 48 to 72 hrs by immunoblot analysis. The class given is cell-based.
Assay [20] deals with UBR/Epidermal growth factor receptor (Homo sapiens), P00533+Q5T4S7+Q8IWV7+Q8IWV8 [L858R,T790M]. The experiment in a line: PROTAC (AATac) activity at UBR1/2/4/EGFR L858R/T790M mutant in human NCI-H1975 cells assessed as protein degradation at 20 uM incubated for 48 to 72 hrs by immunoblot analysis relative to control. It counts as cell-based. Conditions: time 48-72 hrs.
The target of assay [21] is T2, UBR/ALK tyrosine kinase receptor/Echinoderm microtubule-associated protein-like 4 (Homo sapiens) (UniProt Q9UM73+Q9HC35+Q5T4S7+Q8IWV7+Q8IWV8). Put plainly: PROTAC (AATac) activity at UBR1/2/4/EML4-ALK in human NCI-H3122 cells assessed as protein degradation at 10 uM incubated for approximately 3 hrs by immunoblot analysis. The class given is cell-based.
Assay [22] relates to UBR/Epidermal growth factor receptor (Homo sapiens), P00533+Q5T4S7+Q8IWV7+Q8IWV8 [L858R,T790M]. The experiment in a line: PROTAC (AATac) activity at UBR1/2/4/EGFR L858R/T790M mutant in human NCI-H1975 cells assessed as protein degradation at 20 uM incubated for 48 hrs by immunoblot analysis. It counts as cell-based.
In assay [23] the target is UBR/Epidermal growth factor receptor (Homo sapiens, UniProt P00533+Q5T4S7+Q8IWV7+Q8IWV8, T790M/L858R). The experiment in a line: PROTAC (AATac) activity at UBR1/2/4/EGFR L858R/T790M mutant in human NCI-H1975 cells assessed as protein degradation incubated for 48 to 72 hrs by immunoblot analysis. The class given is cell-based.
The target in assay [24] is T2, UBR/ALK tyrosine kinase receptor/Echinoderm microtubule-associated protein-like 4 (Homo sapiens). The experiment in a line: PROTAC (AATac) activity at UBR1/2/4/EML4-ALK in human NCI-H3122 cells assessed as protein degradation upto 20 uM incubated for 72 hrs by immunoblot analysis. It counts as cell-based.
The target is the same in assay [25]. The experiment in a line: PROTAC (AATac) activity at UBR1/2/4/EML4-ALK in human NCI-H3122 cells assessed as protein degradation at 10 uM incubated for 48 to 72 hrs by immunoblot analysis relative to control. It counts as cell-based. The settings on record: time 48-72 hrs.
The subject of assay [26] is UBR/Epidermal growth factor receptor (Homo sapiens), P00533+Q5T4S7+Q8IWV7+Q8IWV8 [L858R,T790M]. The experiment in a line: PROTAC (AATac) activity at UBR1/2/4/EGFR L858R/T790M mutant in human NCI-H1975 cells assessed as protein degradation upto 20 uM incubated for 72 hrs by immunoblot analysis. The class given is cell-based.
Assay [27] relates to NCI-H3122. The experiment in a line: Effect on EML4-ALK expression in human NCI-H3122 cells upto 20 uM incubated for 72 hrs by immunoblot analysis. It counts as functional, cell-based.
Assay [28] deals with Glucose-induced degradation protein 4 homolog/Epidermal growth factor receptor (Homo sapiens), P00533+Q8IVV7 [L858R,T790M]. Put plainly: Inhibition of EGFR L858R/T790M mutant phosphorylation in human NCI-H1975 cells at 20 uM incubated for 72 hrs followed by compound removal and incubation in drug-free medium for 12 to 72 hrs by immunoblot analysis. The class given is cell-based.

The test system of assay [29] is NCI-H3122. Put plainly: Inhibition of EML4-ALK phosphorylation in human NCI-H3122 cells at 2.5 uM incubated for 48 hrs followed by compound removal and incubation in drug-free medium for 12 to 72 hrs by immunoblot analysis. It counts as cell-based.
Assay [30] deals with Epidermal growth factor receptor (Homo sapiens), P00533 [L858R,T790M]. Put plainly: Induction of EGFR L858R/T790M mutant degradation in human NCI-H1975 cells harboring sgGID4 at 1 to 20 uM incubated for 24 hrs by immunoblot analysis. It counts as cell-based. Conditions: dose 1-20 µM.
Assay [31] has the same test system. The experiment in a line: Inhibition of EGFR L858R/T790M mutant phosphorylation in human NCI-H1975 cells harboring sgGID4 at 1 to 20 uM incubated for 24 hrs by immunoblot analysis. The class given is cell-based. Conditions: dose 1-20 µM.

Activity calls are given as the source filed them. The calls are words filed in the database; no cut-off is given here.

In general, IC50 refers to the point on the concentration scale where inhibition reaches its midpoint. A lower IC50 goes with higher potency. A word on the Emax: it is the maximal effect, on the per cent scale that the assay sets. The DC50 is the concentration at which degradation of the target reaches its halfway point. For the compound `COc1cc(N2CCN(C(=O)CCOCCOCCOCCNC(=O)CN)CC2)ccc1Nc1ncc(Cl)c(Nc2ccccc2P(C)(C)=O)n1`, the values for the IC50 in [1] and in [18] were 20.7 µM and 0.84 µM, respectively. Further, the outcome in [2], in [4], in assay [7], in assay [11] and in assay [13] was Active. Further, in assay [3], the Activity worked out at 43%. For the same compound, the outcome in assay [5], in assay [8], in assay [9], in [10], in assay [14] and in assay [16] was inactive. In addition, the outcome in assay [17] was inactive. Further, the Emax in assay [6] was 98%. Also, the values for the DC50 in assay [12] and in assay [15] were 0.5 µM and 20.1 µM, respectively.
Turning to `COc1cc(N2CCN(C(=O)CCOCCOCCOCCNC(=O)[C@@H](N)CCCCN)CC2)ccc1Nc1ncc(Cl)c(Nc2ccccc2P(C)(C)=O)n1`, the values for the IC50 in assay [1] and in assay [18] were 18.6 µM and 5.3 µM, respectively. The DC50 in assay [19] was determined as 1.32 µM; in assay [23], 19.7 µM. The Activity in assay [20] came to 52%. Moreover, the outcome in assay [8], in assay [9] and in assay [14] was inactive. Moreover, the result in [21], in assay [22], in assay [24] and in assay [26] was Active. Further, in [25], the Emax was 91%.
Turning to `COc1cc(N2CCN(C(=O)CCOCCOCCOCCNC(=O)[C@@H](N)CCCN)CC2)ccc1Nc1ncc(Cl)c(Nc2ccccc2P(C)(C)=O)n1`, in [27], the outcome was inactive.
`COc1cc(N2CCNCC2)ccc1Nc1ncc(Cl)c(Nc2ccccc2P(C)(C)=O)n1`: the IC50 in assay [1] came to 0.88 µM; in assay [18] it was 0.3 µM. In addition, the inhibition result in assay [28] and in assay [29] was “inactive” each time. The outcome in [30], in assay [27] and in [31] was inactive.
